Earlier results on three compounds are cited in patent US8338346B2, “Perfume compositions comprising functional perfume components” (The Procter & Gamble Company, priority 2008, dated 2012).

The conditions of data set [1]: approximate reported values; unit inferred.
The conditions of data set [2]: odor detection threshold; approximate reported values.

Turning to `C=CC(C)(O)CCC=C(C)C` (centres unmarked) [Linalool, 3-hydroxy-3,7-dimethyl-1,6 octadiene], in data set [1], the Vapor pressure is 0.05 mmHg. For the same compound, the ODT in data set [2] was 22 ppb.

For `C=C(C)C1CC=C(C)CC1` [D-Limonene, 1-methyl-4-isopropenyl-1-cyclohexene], the ODT in data set [2] was 204 ppb.

Consider `CC(=O)OCCCCCCC(C)C` [Iso-Nonyl Acetate, iso-nonyl acetate], for which, in data set [1], the Vapor pressure is 0.11 mmHg. Further, the ODT in data set [2] is listed as 12 ppb.
